Measurements taken from patent publication US20130302442A1, “METHODS OF USING (4S,4AS,5AR,12AS)-4-DIMETHYLAMINO-3,10,12,12A-TETRAHYDROXY-7-[(METHOXY(METHYL)AMINO)-METHYL]-1,11-DIOXO-1,4,4A,5,5A,6,11,12A-OCTAHYDRO-NAPHTHACENE-2-CARBOXYLIC ACID AMIDE” (priority 2012, published 2013).
Converted amounts (≈) assume the structure as drawn. Like-named read-outs stand apart in the source and are kept apart here.

Assays:
Lactobacillus plantarum = assay: In vitro MIC testing against anaerobic bacteria; format: cell-based; conditions: Lactiplantibacillus plantarum, ATCC39268; Lactobacillus plantarum 2791, ATCC 39268
[1] = tested on: Streptococcus constellatus; assay: In vitro MIC testing against anaerobic bacteria; format: cell-based
Bacteroides vulgatus = assay: In vitro MIC testing against anaerobic bacteria; format: cell-based
[2] = tested on: Prevotella melaninogenica; assay: In vitro MIC testing against anaerobic bacteria; format: cell-based
Prevotella spp. = assay: In vitro MIC testing against anaerobic bacteria; format: cell-based
P. acnes = assay: In vitro MIC testing, antibacterial spectrum of activity; format: cell-based, Propionibacterium acnes; conditions: for MIC50: read-out: MIC50; for MIC90: read-out: MIC90
S. aureus = assay: as above; format: cell-based, Staphylococcus aureus; conditions: for MIC50 / MIC90 / MIC: Staphylococcus aureus; for MIC50: read-out: MIC50; for MIC90: read-out: MIC90
S. epidermidis = assay: as above; format: cell-based, Staphylococcus epidermidis; conditions: for MIC50 / MIC90: Staphylococcus epidermidis; for MIC50: read-out: MIC50; for MIC90: read-out: MIC90
S. pneumoniae = assay: as above; format: cell-based, Streptococcus pneumoniae
E. cloacae = assay: as above; format: cell-based; conditions: Enterobacter cloacae; E. cloacae (30 isolates)
Salmonella Spp. = assay: as above; format: cell-based; conditions: Salmonella
Chlamydia trachomatis [3] = assay: In vitro susceptibility testing of Chlamydia trachomatis in HEp-2 cells (first study); format: cell-based; conditions: C. trachomatis strains
Helicobacter pylori = assay: In vitro MIC against multiple isolates of H. pylori; format: cell-based; conditions: for MIC: read-out: MIC
[4] = tested on: methicillin-sensitive S. aureus (MSSA); assay: In vitro MIC against isolates of MSSA; format: cell-based, Staphylococcus aureus
[5] = tested on: hospital-associated methicillin-resistant S. aureus (MRSA-HA); assay: In vitro MIC against isolates of MRSA-HA; format: cell-based, Staphylococcus aureus; conditions: MRSA-HA (33 isolates)
[6] = tested on: community-acquired methicillin-resistant S. aureus (MRSA-CA); assay: In vitro MIC against isolates of MRSA-CA; format: cell-based, Staphylococcus aureus
Chlamydia trachomatis [7] = assay: Susceptibility testing (MIC, MBC) of 10 isolates of C. trachomatis in HEp-2 cells; format: cell-based
Chlamydia pneumoniae = assay: Susceptibility testing (MIC, MBC) of 10 isolates of C. pneumoniae in HEp-2 cells; format: cell-based
[8] = tested on: bacterial protein synthesis (synthesis of reporter protein); assay: In vitro cell-free bacterial transcription and translation assay; format: biochemical; conditions: cell-free bacterial transcription and translation assay (Promega); read-out: IC50, inhibition of the synthesis of reporter protein
Staphylococcus aureus = assay: Inhibition of macromolecular synthesis in Staphylococcus aureus (whole-cell assay); format: cell-based; conditions: S. aureus, at 8-fold the MIC
[9] = Cutibacterium acnes, P. acnes [clinical isolates] (55 isolates)
[10] = Cutibacterium acnes, P. acnes [tetS] (13 isolates)
[11] = MRSA, S. aureus [MRSA] (31 isolates)
[12] = MSSA, S. aureus [MSSA] (32 isolates)
[13] = S. epidermidis [MRSE] (32 isolates)
[14] = S. epidermidis [MSSE] (31 isolates)
[15] = Staphylococcus aureus, MRSA-CA (33 isolates)

Compound: CON(C)Cc1ccc(O)c2c1C[C@H]1C[C@H]3[C@H](N(C)C)C(O)=C(C(N)=O)C(=O)[C@@]3(O)C(O)=C1C2=O [The Active, (4S,4aS,5aR,12aS)-4-dimethylamino-3,10,12,12a-tetrahydroxy-7-[(methoxy(methyl)amino)-methyl]-1,11-dioxo-1,4,4a,5,5a,6,11,12a-octahydro-naphthacene-2-carboxylic acid amide]
- MIC (Lactobacillus plantarum): 2 µg/mL (≈ 4.1 µM)
- MIC ([1]; ATCC27823, Streptococcus constellatus 1202, ATCC 27823, read-out: MIC): 32 µg/mL (≈ 65.6 µM)
- MIC ([1]; Streptococcus constellatus, S. constellatus, summary of Table 1, read-out: MIC, high MIC values): > 16 µg/mL
- MIC (Bacteroides vulgatus; Bacteroides vulgatus 3494): 16 µg/mL (≈ 32.8 µM)
- MIC (Bacteroides vulgatus; Phocaeicola vulgatus): 16 µg/mL (≈ 32.8 µM)
- MIC ([2]; Prevotella melaninogenica 3437, read-out: MIC): 32 µg/mL (≈ 65.6 µM)
- MIC ([2]; Prevotella melaninogenica 3443, read-out: MIC): 4 µg/mL (≈ 8.2 µM)
- MIC (Prevotella spp.; Prevotella spp. 3564): 4 µg/mL (≈ 8.2 µM)
- MIC (Prevotella spp.; Prevotella spp. 3568): 2 µg/mL (≈ 4.1 µM)
- MIC (P. acnes; Cutibacterium acnes): > 8 µg/mL
- MIC50 (P. acnes; [9]): 0.5 µg/mL (≈ 1.03 µM)
- MIC90 (P. acnes; [9]): 4 µg/mL (≈ 8.2 µM)
- MIC50 (P. acnes; [10]): 0.5 µg/mL (≈ 1.03 µM)
- MIC90 (P. acnes; [10]): 2 µg/mL (≈ 4.1 µM)
- MIC Range (P. acnes; P. acnes [clinical isolates] (55 isolates)): 0.5 to 16 µg/mL
- MIC Range (P. acnes; P. acnes [tetS] (2 isolates)): 0.25 to 1 µg/mL
- MIC Range (P. acnes; P. acnes [tetS] (13 isolates)): 0.25 to 4 µg/mL
- MIC Range (S. aureus; S. aureus [MRSA] (31 isolates)): 0.25 to 4 µg/mL
- MIC Range (S. aureus; S. aureus [MSSA] (32 isolates)): 0.25 to 16 µg/mL
- MIC Range (S. aureus; S. aureus [tetR] (10 isolates)): 0.125 to 32 µg/mL
- MIC Range (S. aureus; S. aureus [tetS] (20 isolates)): ≦0.06-0.25 μg/mL
- MIC50 (S. aureus; [11]): 0.25 µg/mL (≈ 0.513 µM)
- MIC90 (S. aureus; [11]): 0.5 µg/mL (≈ 1.03 µM)
- MIC50 (S. aureus; [12]): 0.5 µg/mL (≈ 1.03 µM)
- MIC90 (S. aureus; [12]): 0.5 µg/mL (≈ 1.03 µM)
- MIC50 (S. aureus; S. aureus [tetR] (10 isolates)): 4 µg/mL (≈ 8.2 µM)
- MIC90 (S. aureus; S. aureus [tetR] (10 isolates)): 16 µg/mL (≈ 32.8 µM)
- MIC50 (S. aureus; S. aureus [tetS] (20 isolates)): 0.125 µg/mL (≈ 0.256 µM)
- MIC90 (S. aureus; S. aureus [tetS] (20 isolates)): 0.25 µg/mL (≈ 0.513 µM)
- MIC (S. aureus; S. aureus strain PBS # 1309, tetK): 0.5 µg/mL (≈ 1.03 µM)
- MIC (S. aureus; S. aureus strain PBS # 1310, tetM): 8 µg/mL (≈ 16.4 µM)
- MIC (S. aureus; S. aureus strain PBS # 1739, tet38): 4 µg/mL (≈ 8.2 µM)
- MIC Range (S. epidermidis; [13]): 0.25 to 2 µg/mL
- MIC Range (S. epidermidis; [14]): 0.12 to 2 µg/mL
- MIC50 (S. epidermidis; [13]): 0.5 µg/mL (≈ 1.03 µM)
- MIC90 (S. epidermidis; [13]): 2 µg/mL (≈ 4.1 µM)
- MIC50 (S. epidermidis; [14]): 0.25 µg/mL (≈ 0.513 µM)
- MIC90 (S. epidermidis; [14]): 2 µg/mL (≈ 4.1 µM)
- MIC Range (S. pneumoniae; S. pneumoniae [PSSP] (32 isolates)): ≦0.03-32 μg/mL
- MIC Range (S. pneumoniae; S. pneumoniae [tetR] (5 isolates)): 4 to 32 µg/mL
- MIC Range (S. pneumoniae; S. pneumoniae [tetS] (5 isolates)): ≦0.06-0.125 μg/mL
- MIC50 (S. pneumoniae; Streptococcus pneumoniae, S. pneumoniae [PSSP] (32 isolates), read-out: MIC50): 0.12 µg/mL (≈ 0.246 µM)
- MIC90 (S. pneumoniae; Streptococcus pneumoniae, S. pneumoniae [PSSP] (32 isolates), read-out: MIC90): 0.25 µg/mL (≈ 0.513 µM)
- MIC (S. pneumoniae; Streptococcus pneumoniae, S. pneumoniae strain PBS # 511, tetM): 4 µg/mL (≈ 8.2 µM)
- MIC50 (E. cloacae): 32 µg/mL (≈ 65.6 µM)
- MIC90 (E. cloacae): > 64 µg/mL
- MIC90 (Salmonella Spp.): > 64 µg/mL
- MIC Range (Chlamydia trachomatis [3]): 0.06 to 0.125 µg/mL
- MIC90 (Chlamydia trachomatis [3]; Chlamydia trachomatis, read-out: MIC at which 90% of the strains were inhibited (MIC90)): 0.125 µg/mL (≈ 0.256 µM)
- MBC (Chlamydia trachomatis [3]; Chlamydia trachomatis, read-out: minimum bactericidal concentration at which 90% of the strains were inhibited (MBC90)): 0.125 µg/mL (≈ 0.256 µM)
- MIC Range (Helicobacter pylori; H. pylori clinical isolate summary): 1 to 8 µg/mL
- concentration inhibiting 12 out of 13 strains (Helicobacter pylori; H. pylori, 12 out of 13 strains): 1 to 2 µg/mL
- concentration inhibiting all test strains (Helicobacter pylori; H. pylori, all 13 test strains): ≤ 8 µg/mL
- MIC (Helicobacter pylori; Helicobacter pylori, ATCC43504, H. pylori reference strain, culture No. 3718, ATCC 43504): 2 µg/mL (≈ 4.1 µM)
- MIC (Helicobacter pylori; Helicobacter pylori, ATCC700824, H. pylori reference strain, culture No. 3719, ATCC 700824): 2 µg/mL (≈ 4.1 µM)
- MIC (Helicobacter pylori; Helicobacter pylori, ATCCBAA945, H. pylori reference strain, culture No. 3720, ATCC BAA-945): 1 µg/mL (≈ 2.05 µM)
- MIC (Helicobacter pylori; Helicobacter pylori, H. pylori clinical isolate, culture No. 4368): 2 µg/mL (≈ 4.1 µM)
- MIC (Helicobacter pylori; Helicobacter pylori, H. pylori clinical isolate, culture No. 4369): 8 µg/mL (≈ 16.4 µM)
- MIC (Helicobacter pylori; Helicobacter pylori, H. pylori clinical isolate, culture No. 4370): 2 µg/mL (≈ 4.1 µM)
- MIC (Helicobacter pylori; Helicobacter pylori, H. pylori clinical isolate, culture No. 4371): 2 µg/mL (≈ 4.1 µM)
- MIC (Helicobacter pylori; Helicobacter pylori, H. pylori clinical isolate, culture No. 4372): 1 µg/mL (≈ 2.05 µM)
- MIC (Helicobacter pylori; Helicobacter pylori, H. pylori clinical isolate, culture No. 4374): 2 µg/mL (≈ 4.1 µM)
- MIC (Helicobacter pylori; Helicobacter pylori, H. pylori clinical isolate, culture No. 4375): 2 µg/mL (≈ 4.1 µM)
- MIC (Helicobacter pylori; Helicobacter pylori, H. pylori clinical isolate, culture No. 4377): 1 µg/mL (≈ 2.05 µM)
- MIC (Helicobacter pylori; Helicobacter pylori, H. pylori clinical isolate, culture No. 4503): 2 µg/mL (≈ 4.1 µM)
- MIC (Helicobacter pylori; Helicobacter pylori, H. pylori clinical isolate, culture No. 4504): 1 µg/mL (≈ 2.05 µM)
- MIC90 (Helicobacter pylori; Helicobacter pylori, H. pylori, MIC for 90% of clinical test isolates, read-out: MIC90): 2 µg/mL (≈ 4.1 µM)
- MIC50 (Helicobacter pylori; Helicobacter pylori, read-out: MIC50): 2 µg/mL (≈ 4.1 µM)
- MIC90 ([4]; MSSA (34 isolates)): 1.0 µg/mL (≈ 2.05 µM)
- MIC Range ([4]; MSSA (34 isolates)): 0.25 to 16 µg/mL
- MIC50 ([4]; Staphylococcus aureus, MSSA (34 isolates)): 0.25 µg/mL (≈ 0.513 µM)
- MIC90 ([4]; Staphylococcus aureus, MSSA (34 isolates), read-out: MIC90): 1 µg/mL (≈ 2.05 µM)
- MIC ([4]; Staphylococcus aureus, single strain of doxycycline-resistant MSSA): 16 µg/mL (≈ 32.8 µM)
- MIC Range [5]: 0.25 to 0.5 µg/mL
- MIC50 ([5]; Staphylococcus aureus): 0.25 µg/mL (≈ 0.513 µM)
- MIC90 ([5]; Staphylococcus aureus): 0.5 µg/mL (≈ 1.03 µM)
- MIC Range ([6]; MRSA-CA (33 isolates)): 0.12 to 8 µg/mL
- MIC50 [6, 15]: 0.25 µg/mL (≈ 0.513 µM)
- MIC90 [6, 15]: 0.5 µg/mL (≈ 1.03 µM)
- MIC ([6]; Staphylococcus aureus, single strain of doxycycline-resistant MRSA-CA): 8 µg/mL (≈ 16.4 µM)
- MIC 90% (Chlamydia trachomatis [7]; 72 h): 0.125 µg/mL (≈ 0.256 µM)
- MIC Range (Chlamydia trachomatis [7]; 72 h): 0.03 to 0.125 µg/mL
- MIC50 (Chlamydia trachomatis [7]; Chlamydia trachomatis, 72 h): 0.06 µg/mL (≈ 0.123 µM)
- MIC90 (Chlamydia trachomatis [7]; Chlamydia trachomatis, 72 h): 0.125 µg/mL (≈ 0.256 µM)
- MBC (Chlamydia trachomatis [7]; Chlamydia trachomatis, after passage, read-out: MBC 90%): 0.125 µg/mL (≈ 0.256 µM)
- MBC 90% (Chlamydia trachomatis [7]; after passage): 0.125 µg/mL (≈ 0.256 µM)
- MBC Range (Chlamydia trachomatis [7]; after passage): 0.03 to 0.125 µg/mL
- MIC 90% (Chlamydia pneumoniae; 72 h): 0.5 µg/mL (≈ 1.03 µM)
- MIC Range (Chlamydia pneumoniae; 72 h): 0.125 to 0.5 µg/mL
- MIC50 (Chlamydia pneumoniae; Chlamydia pneumoniae, 72 h): 0.25 µg/mL (≈ 0.513 µM)
- MIC90 (Chlamydia pneumoniae; Chlamydia pneumoniae, 72 h): 0.5 µg/mL (≈ 1.03 µM)
- MBC (Chlamydia pneumoniae; Chlamydia pneumoniae, after passage, read-out: MBC 90%): 0.25 µg/mL (≈ 0.513 µM)
- MBC 90% (Chlamydia pneumoniae; after passage): 0.25 µg/mL (≈ 0.513 µM)
- MBC Range (Chlamydia pneumoniae; after passage): 0.125 to 0.5 µg/mL
- IC50 [8]: 8.3 ± 0.18 µM
- inhibition of the synthesis of cell wall, DNA, RNA and lipid components (Staphylococcus aureus): less than 20%
- maximum inhibition of incorporation of [3H]-leucine into proteins (Staphylococcus aureus): 80%
